Reference: the NIST ThermoML archive (doi:10.1016/j.jct.2012.09.028)

Details: 101.33 kPa, Crystal, Vacuum adiabatic calorimetry

O=C[C@H](O)[C@@H](O)[C@H](O)CO [D-xylose]
Details | molar entropy [J/K/mol]
0.5 K | 0.0002783
1 K | 0.0007579
1.5 K | 0.001652
2 K | 0.003197
2.5 K | 0.005661
3 K | 0.009356
3.5 K | 0.01464
4 K | 0.02194
4.5 K | 0.0317
5 K | 0.04448
5.5 K | 0.06082
6 K | 0.08137
6.5 K | 0.1068
7 K | 0.1377
7.5 K | 0.1749
8 K | 0.219
8.5 K | 0.2706
9 K | 0.3303
9.5 K | 0.3987
10 K | 0.4763
11 K | 0.6598
12 K | 0.8803
13 K | 1.138
14 K | 1.432
15 K | 1.761
16 K | 2.122
17 K | 2.515
18 K | 2.935
19 K | 3.383
20 K | 3.854
25 K | 6.505
30 K | 9.489
35 K | 12.65
40 K | 15.88
45 K | 19.14
50 K | 22.41
55 K | 25.66
60 K | 28.89
65 K | 32.12
70 K | 35.35
75 K | 38.56
80 K | 41.77
85 K | 44.96
90 K | 48.15
95 K | 51.33
100 K | 54.5
110 K | 60.81
120 K | 67.1
130 K | 73.34
140 K | 79.56
150 K | 85.75
160 K | 91.91
170 K | 98.05
180 K | 104.16
190 K | 110.25
200 K | 116.32
210 K | 122.38
220 K | 128.42
230 K | 134.45
240 K | 140.47
250 K | 146.47
260 K | 152.47
270 K | 158.46
273.15 K | 160.35
280 K | 164.44
290 K | 170.42
298.15 K | 175.29
300 K | 176.4
